Experimental data published in paper PMC2828149 (Journal of ethnopharmacology, 2009).
Values after ≈ are worked out from the molar mass of the structure shown. Where two headings read alike, the source gives them in different places.

Legend:
[1] = in vitro; assay type: cell-based; details: human
[2] = test system: ROS generation in Myelomonocytic HL-60 cells; test: cell based antioxidant assay, inhibition of PMA-induced ROS generation; details: for Antioxidant IC50: inhibition of PMA-induced ROS generation in HL-60 cells; for IC50: Homo sapiens, HL-60, read-out: Antioxidant IC50
[3] = target: T1, recombinant human Monoamine Oxidase A (MAO-A) (Homo sapiens, UniProt P21397); test: kynuramine deamination assay, recombinant human MAO-A; assay type: biochemical; details: for MAO-A inhibitory activity in words: pure compounds; for MAO-A activity more potent than MAO-B: ratio of MAO-B to MAO-A IC50
T1 sequence (P21397 1-527): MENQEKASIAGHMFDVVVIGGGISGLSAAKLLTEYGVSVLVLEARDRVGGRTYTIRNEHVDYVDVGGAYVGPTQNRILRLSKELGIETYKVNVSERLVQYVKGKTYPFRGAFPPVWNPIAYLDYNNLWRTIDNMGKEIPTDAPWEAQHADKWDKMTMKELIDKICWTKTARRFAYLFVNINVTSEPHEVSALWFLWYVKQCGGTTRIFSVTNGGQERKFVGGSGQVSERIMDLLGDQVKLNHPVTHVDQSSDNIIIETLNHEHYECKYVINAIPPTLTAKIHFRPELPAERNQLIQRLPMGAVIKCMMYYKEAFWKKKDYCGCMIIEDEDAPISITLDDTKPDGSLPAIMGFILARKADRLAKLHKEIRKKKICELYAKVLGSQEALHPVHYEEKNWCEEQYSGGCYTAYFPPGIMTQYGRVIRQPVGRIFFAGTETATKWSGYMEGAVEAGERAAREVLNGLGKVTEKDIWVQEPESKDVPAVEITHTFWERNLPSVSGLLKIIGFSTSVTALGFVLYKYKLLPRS

[4] = target: T2, recombinant human Monoamine Oxidase B (MAO-B) (Homo sapiens, UniProt P27338); test: biochemical; assay type: biochemical
T2 sequence (P27338 1-520): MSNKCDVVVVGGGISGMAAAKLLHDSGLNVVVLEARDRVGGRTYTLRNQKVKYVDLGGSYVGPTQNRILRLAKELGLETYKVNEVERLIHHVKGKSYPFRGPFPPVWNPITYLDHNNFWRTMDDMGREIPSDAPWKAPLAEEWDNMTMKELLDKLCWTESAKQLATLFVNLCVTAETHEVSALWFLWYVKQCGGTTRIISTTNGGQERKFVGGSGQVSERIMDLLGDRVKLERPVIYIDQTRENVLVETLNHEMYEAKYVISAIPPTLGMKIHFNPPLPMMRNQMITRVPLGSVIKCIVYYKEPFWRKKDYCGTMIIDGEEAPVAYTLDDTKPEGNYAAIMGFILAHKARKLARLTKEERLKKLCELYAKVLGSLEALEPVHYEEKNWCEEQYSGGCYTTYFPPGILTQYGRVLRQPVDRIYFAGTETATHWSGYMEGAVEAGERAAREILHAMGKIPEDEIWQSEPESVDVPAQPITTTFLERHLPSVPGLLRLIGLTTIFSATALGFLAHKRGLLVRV

[5] = test system: HL-60 cells; test: in vitro; assay type: cell-based; details: HL-60 cells, 48 hours, XTT
[6] = test system: MAO-A; details: liver homogenate; ref Schwartz et al., 2003; cited from earlier work
[7] = test system: rat striatal slices; details: ref Schwartz et al., 2003; cited from earlier work
[8] = test system: PC12 cells; details: ref Cho et al., 2008, Heo and Lee, 2005; cited from earlier work
[9] = read-out: MAO-A IC50, pure compounds and standards
[10] = read-out: MAO-B IC50, pure compounds and standards

| Compound | IC50 at 48 h [1] [µg/mL] | Antioxidant IC50 [2] | IC50 [3, 9] [µM] | IC50 [4, 10] [µM] | Cytotoxicity IC50 [5] | IC50 [2] [µg/mL] | also measured |
| --- | --- | --- | --- | --- | --- | --- | --- |
| COc1cccc2c1C(=O)c1c(O)c3c(c(O)c1C2=O)C[C@@](O)(C(=O)CO)C[C@@H]3O[C@H]1C[C@H](N)[C@H](O)[C@H](C)O1 [Doxorubicin, reference compound] | 0.2 to 0.35 (≈ 0.368 to 0.644 µM) |  |  |  |  |  |  |
| O=C1O[C@H]([C@@H](O)CO)C(O)=C1O [Vitamin C, reference compound] |  | 1.34 µg/mL |  |  |  |  |  |
| Cc1[nH]ccc2c1[nH]c1cc(=O)ccc12 [compound 3, harmol] |  |  |  |  |  |  | IC50 [3]: 0.018 µM; MAO-A inhibitory activity in words [3]: much weaker than 6 or 7 |
| COc1ccc2c3c([nH]c2c1)[C@@H](C)NCC3 [compound 5, tetrahydroharmine] |  | NA (NA = No antioxidant activity upto 31.25 µg/mL) | 0.074 | > 100 | NC (NC = No cytotoxicity to HL-60 cells up to 31.25 µg/mL) |  | MAO-A inhibitory activity in words [3]: much weaker than 6 or 7 |
| COc1ccc2c3c([nH]c2c1)C(C)=NCC3 [compound 6, harmaline] | 25 (≈ 117 µM) |  |  |  |  | > 31.2 | MAO-A activity more potent than MAO-B [3]: > 10,000 fold; IC50 [4]: 25 µM |
| COc1ccc2c(c1)[nH]c1c(C)nccc12 [compound 7, harmine] | > 31.2 |  |  |  |  | > 31.2 | MAO-A activity more potent than MAO-B [3]: > 10,000 fold; IC50 [4]: 20 µM; inhibition of MAO-A in words [6]: concentration-dependent inhibition; release of dopamine in words [7]: increase |
| Oc1cc(O)c2c(c1)O[C@H](c1ccc(O)c(O)c1)[C@H](O)C2 [compound 8, (−)-2R,3R–Epicatechin] | 6.3 (≈ 21.7 µM) |  |  |  |  | < 0.13 | IC50 [3]: 51.7 µM; IC50 [4]: 65 µM; protection from Aβ-induced neurotoxicity in words [8]: protection |
| Oc1cc(O)c2c(c1)O[C@H](c1ccc(O)c(O)c1)[C@H](O)[C@H]2c1c(O)cc(O)c2c1O[C@H](c1ccc(O)c(O)c1)[C@H](O)C2 [compound 9, (−)-2R,3R-epicatechin-4β,8-(−)-2R,3R-epicatechin] |  | 0.57 µg/mL | 8.5 | 35 | NC (NC = No cytotoxicity to HL-60 cells up to 31.25 µg/mL) |  |  |
| Cc1c(C)c2c(c(C)c1O)CCC(C)(C(=O)O)O2 (stereo not drawn) [trolox, reference compound] |  |  |  |  |  | 0.14 (≈ 0.559 µM) |  |
| banistenoside A [compound 1] |  | NA (NA = No antioxidant activity upto 31.25 µg/mL) | 4.9 | > 100 | >12.5 µg/mL |  |  |
| banistenoside B [compound 2] |  |  | 21.5 | > 100 | 7.8 µg/mL |  |  |
